According to US8623857B2, “N-phenyl imidazole carboxamide inhibitors of 3-phosphoinositide-dependent protein kinase-1” (Merck Sharp & Dohme Corp., priority 2010, dated 2014):

How the values were obtained:
recombinant human PDK1 = molecular target: T1, recombinant human PDK1 (Homo sapiens, UniProt O15530); assay: PDK1 IMAP fluorescence polarization assay (inhibition of peptide substrate phosphorylation); format: biochemical; conditions: Table 10; compounds 97-132
T1 construct: containing amino acids 51-556 of the human PDK1 enzyme; made in house; host or cells: Sf9 insect cells
T1 sequence (O15530 51-556): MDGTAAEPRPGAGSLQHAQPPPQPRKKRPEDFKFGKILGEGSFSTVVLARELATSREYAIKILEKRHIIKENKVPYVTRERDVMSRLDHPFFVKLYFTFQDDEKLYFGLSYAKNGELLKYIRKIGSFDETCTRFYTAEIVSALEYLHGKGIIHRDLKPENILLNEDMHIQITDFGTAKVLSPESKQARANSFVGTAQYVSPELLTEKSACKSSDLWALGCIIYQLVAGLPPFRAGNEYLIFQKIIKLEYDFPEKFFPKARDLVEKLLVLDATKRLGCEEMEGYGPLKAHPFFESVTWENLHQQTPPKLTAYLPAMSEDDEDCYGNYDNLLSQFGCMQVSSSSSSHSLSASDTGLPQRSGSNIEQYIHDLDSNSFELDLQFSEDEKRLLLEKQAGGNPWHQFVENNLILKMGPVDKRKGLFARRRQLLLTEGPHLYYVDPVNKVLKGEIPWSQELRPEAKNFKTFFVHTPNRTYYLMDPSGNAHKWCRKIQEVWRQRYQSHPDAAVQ

PDK-1 = molecular target: T2, PDK-1 (Homo sapiens, UniProt O15530); conditions: in vitro; cited from earlier work
T2 sequence (O15530 1-556): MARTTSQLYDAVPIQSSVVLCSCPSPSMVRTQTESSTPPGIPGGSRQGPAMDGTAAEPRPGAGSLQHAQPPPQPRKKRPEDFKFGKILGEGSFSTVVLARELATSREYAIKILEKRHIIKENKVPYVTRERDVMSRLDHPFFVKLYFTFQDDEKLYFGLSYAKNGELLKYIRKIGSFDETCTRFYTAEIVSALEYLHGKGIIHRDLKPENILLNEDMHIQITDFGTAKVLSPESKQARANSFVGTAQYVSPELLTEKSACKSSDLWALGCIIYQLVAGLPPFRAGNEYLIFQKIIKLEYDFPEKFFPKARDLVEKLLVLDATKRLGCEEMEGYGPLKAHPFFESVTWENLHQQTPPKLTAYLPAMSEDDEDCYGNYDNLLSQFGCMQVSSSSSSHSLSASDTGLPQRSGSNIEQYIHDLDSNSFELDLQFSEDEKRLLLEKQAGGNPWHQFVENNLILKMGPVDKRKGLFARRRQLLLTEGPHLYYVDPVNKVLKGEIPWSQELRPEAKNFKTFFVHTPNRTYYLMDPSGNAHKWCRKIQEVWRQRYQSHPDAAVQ

IC50 (recombinant human PDK1) [nM] | Compound | enhance PDK-1 phosphorylation of substrates (PDK-1)
1 to 50 | CNc1nc(-c2c[nH]c(C(=O)Nc3cccc(F)c3N3CCC(CN)CC3)n2)cc(N2CC[C@@](COC)(C(=O)NC3CC3)C2)n1 [Compound 131, (R)—N-(2-(4-(aminomethyl)piperidin-1-yl)-3-fluorophenyl)-4-(6-(3-(cyclopropylcarbamoyl)-3-(methoxymethyl)pyrrolidin-1-yl)-2-(methylamino)pyrimidin-4-yl)-1H-imidazole-2-carboxamide] | 
1 to 50 | CNc1nc(-c2c[nH]c(C(=O)Nc3cccc(F)c3N3CCC(CN)CC3)n2)cc(N2CC[C@@](COC)(C(=O)NC3CCCCC3)C2)n1 [Compound 132, (R)—N-(2-(4-(aminomethyl)piperidin-1-yl)-3-fluorophenyl)-4-(6-(3-(cyclohexylcarbamoyl)-3-(methoxymethyl)pyrrolidin-1-yl)-2-(methylamino)pyrimidin-4-yl)-1H-imidazole-2-carboxamide] | 
 | PIFtide: "The peptide sequence of PIFtide is RREPRILSEEEQEMFRDFDYIADWC (SEQ ID NO:2)"; "interacts with PDK-1 and is derived from PRK2 kinase" (PIFtide) | approximately 4 fold
